# “Also recorded” adds a separate entry of the source. Read-outs that look alike come from different tables or passages of the source.
# What was measured:
# tumor cells [1] = details: in vivo; cited from earlier work
# tumor cells [2] = details: cited from earlier work; for ratio of boron in tumor cells compared to normal cells: in vivo
# [3] = tested on: human glioblastoma multiforme (brain) tumors; test: Boron biodistribution (tumor, normal brain) in mice bearing human glioblastoma multiforme tumors; type: in vivo; details: sodium salt
# Experimental: The water soluble sodium salt of the boron containing amino carboxylic compound VIII, was injected into four mice bearing human glioblastoma multiforme (brain) tumors on their hind quarter. One animal was sacrificed after 3 hours, 6 hours, 12 hours, and 24 hours and tissue samples were taken from the tumor, normal brain tissue, blood and muscle. At three hours the tumor contained 52 parts per million of boron and the normal brain contained only 7.6 ppm (a ratio of nearly 7:1). At twelve hours the tumor boron concentration was 37 ppm and the normal brain concentration was 3.7 ppm (a ratio of 10:1).
# A549 lung cancer cells [4] = details: for level above which all cell growth is suppressed: human, 10080 min
# Experimental: (§1) The cells were plated for undisturbed colony growth for seven to ten days and a survival assay was performed. Colonies were washed with isotonic saline and absolute methanol before staining with Giemsa and standard colony counting.
# A549 lung cancer cells [5] = test: Neutron irradiation (252Cf) cell survival, kill constant; type: cell-based; details: regression of semi-log cell survival plots, 252Cf neutrons
# Experimental: The irradiation was performed by known techniques. The ^252 Cf isotope is a useful source of neutrons for BNCT (Hatanaka 1991, A). The neutron spectrum and beam characteristics are similar to those of reactor fission sources with a most probable energy of about 1 MeV. A 50 mg source of ^252 Cf moderated by water provides a source of 1×10^9 thermal neutrons/cm^2 /sec at a distance of 3 cm (personnel communication Dr. R. Martin). The half-life of ^252 Cf is 2.65 years, thus this provides a simple and reliable source of neutrons for BNCT in locations without suitable nuclear reactors.
# This work was performed using sealed ^252 Cf source capsules in a hot cell without transferable radioactive contamination using a double tube arrangement which contained 1.0 ml of A 549 lung cancer cells (maximum cell number 2×10^6 cells/ml and minimum cell number 2×10^3 cells/ml). The cancer cells were exposed to approximately 2×10^8 thermal neutrons per cm^2 per second from 30 mg of ^252 Cf. The flux of neutrons was determined by the irradiation of manganese wire and subsequent analysis of activation. The duration of exposure of cells was 30 sec. 1, 1.5, 2.0 and 4.0 minutes for control groups and boronated compounds. Following radiation exposure, the A 549 lung cancer cells were placed on ice for subculturing and cell survival studies.
# All boronated compounds tested worked as agents in boron neutron capture reactions. Cell survival data was calculated from semi-log plots and subjected to a regression analysis to obtain an X coefficient (kill constant) for each compound.
# A549 lung cancer cells [6] = test: Cellular toxicity, colony survival assay in A549 lung cancer cells; details: for A549 cell survival (Table 1) / level above which all cell growth is suppressed: seven day experiment
# Experimental: as §1
# A549 lung cancer cells [7] = test: Cellular boron uptake by inductively coupled plasma mass spectroscopy; type: cell-based
# Experimental: The measurement of total cellular boron was made using inductively coupled mass spectrometry. Boron concentrations were measured against a calibration curve generated with a series of NIST traceable standards. Yttrium and indium (20 ng/ml) internal standards were employed to correct for drift. Analyte recoveries were monitored by the addition of boron spikes (20 ng/ml) to the samples. Analyte response was corrected accordingly. Finally, a boron standard of 60 ng/ml was utilized to ensure continued calibration. […] The lung cancer cell culture with boron exposed cells was washed by centrifugation twice, and the supernate was removed by suction prior to chemical analysis. […] All the reagents for sample preparation were analytical grade. Concentrated nitric acid (1-2 ml) and 30% hydrogen peroxide was applied to the cells.
# The nitric acid-hydrogen peroxide cocktail was allowed 96 hours for cellular digestion in tubes that facilitated the venting of generated gases. Intermittent stirring was also performed on the sample tubes. All contents were transformed to boron-free tubes and the final volume was adjusted with distilled water to a 10 ml total volume for each sample tested.
# [8] = mice receiving the compound; cited from earlier work
molecule,measurement,setting,value
O=BOB1OB2OB([O-])OB(O1)O2.[Na+] [sodium pentaborate],BNCT treatment outcome,tumor cells [1],treatment failure because of the lack of localization of boron within tumor cells
"N[C@@H](Cc1ccc(B(O)O)cc1)C(=O)O [BPA, boronophenylalanine]",deleterious effects,tumor cells [2]; compared with porphyrin,"without the deleterious effects seen, for example, with porphyrin"
"1-amino-3-[2-(7-(2-hydroxyethyl)-1,7-dicarba-nido-dodecacaboran(12)-ylethyl]cyclobutanecarboxylic acid [VIII]",normal brain boron concentration,[3]; 3 hours,7.6 ppm
same,normal brain boron concentration,[3]; 12 hours,3.7 ppm
same,tumor boron concentration,[3]; 3 hours after injection,52 parts per million
same,tumor boron concentration,[3]; 12 hours,37 ppm
O=C(O)c1ccc(B(O)O)cc1 [p-carboxybenzeneboronic acid],BNCT treatment outcome,tumor cells [1],failed due to vascular damage caused by high blood levels of boron
same,ratio of boron in tumor cells compared to normal cells,tumor cells [2],high ratios of boron in tumor cells compared to normal cells
"1-Amino-3-[2-(1,7 dicarba-closo-dodecacaboran(12)-1-yl)ethyl]cyclobutanecarboxylic acid [ACBC]",toxicity,A549 lung cancer cells [4],low toxicity
same,level above which all cell growth is suppressed,A549 lung cancer cells [4],above 10 μg B/ml
same,kill constant (absolute value of X coefficient),A549 lung cancer cells [5],2.71
same,A549 cell survival (Table 1),A549 lung cancer cells [6]; 1.25 μg B/ml,39
same,A549 cell survival (Table 1),A549 lung cancer cells [6]; 2.5 μg B/ml,14
same,A549 cell survival (Table 1),A549 lung cancer cells [6]; 5.0 μg B/ml,8
same,A549 cell survival (Table 1),A549 lung cancer cells [6]; 10.0 μg B/ml,8
same,A549 cell survival (Table 1),A549 lung cancer cells [6]; 15.0 μg B/ml,0
same,A549 cell survival (Table 1),A549 lung cancer cells [6]; 20.0 μg B/ml,0
same,Atoms of ^10 B in cell,A549 lung cancer cells [7],2749 × 10^9 atoms ^10 B/cell
same,cellular uptake (words),A549 lung cancer cells [7],greatest cellular uptake; also recorded: almost two orders of magnitude greater in uptake than the other compounds tested; also recorded: excellent cellular uptake
5(5carboranyl-1-pentynyl) deoxyuridine [CN-V-264],level above which all cell growth is suppressed,A549 lung cancer cells [4],above 2.5 μg B/ml
same,kill constant (absolute value of X coefficient),A549 lung cancer cells [5],2.88
same,A549 cell survival (Table 1),A549 lung cancer cells [6]; 1.25 μg B/ml,10
same,A549 cell survival (Table 1),A549 lung cancer cells [6]; 2.5 μg B/ml,4
same,A549 cell survival (Table 1),A549 lung cancer cells [6]; 5.0 μg B/ml,0
same,A549 cell survival (Table 1),A549 lung cancer cells [6]; 10.0 μg B/ml,0
same,A549 cell survival (Table 1),A549 lung cancer cells [6]; 15.0 μg B/ml,0
same,A549 cell survival (Table 1),A549 lung cancer cells [6]; 20.0 μg B/ml,0
same,Atoms of ^10 B in cell,A549 lung cancer cells [7],50 × 10^9 atoms ^10 B/cell
same,cellular uptake (words),A549 lung cancer cells [7],lowest in cellular uptake
O=BOB(O)OB(O)OB=O [borax],BNCT treatment outcome,tumor cells [1],treatment failure because of the lack of localization of boron within tumor cells
5(4carboranyl-1-butynyl) uridine [CDU-4],kill constant (absolute value of X coefficient),A549 lung cancer cells [5],2.87
same,A549 cell survival (Table 1),A549 lung cancer cells [6]; 1.25 μg B/ml,22
same,A549 cell survival (Table 1),A549 lung cancer cells [6]; 2.5 μg B/ml,69
same,A549 cell survival (Table 1),A549 lung cancer cells [6]; 5.0 μg B/ml,0
same,A549 cell survival (Table 1),A549 lung cancer cells [6]; 10.0 μg B/ml,0
same,A549 cell survival (Table 1),A549 lung cancer cells [6]; 15.0 μg B/ml,0
same,A549 cell survival (Table 1),A549 lung cancer cells [6]; 20.0 μg B/ml,0
same,level above which all cell growth is suppressed,A549 lung cancer cells [6],above 2.5 μg B/ml
same,Atoms of ^10 B in cell,A549 lung cancer cells [7],10 × 10^9 atoms ^10 B/cell
same,cellular uptake (words),A549 lung cancer cells [7],lowest in cellular uptake
"2-amino-5-[2-methyl]-1,2-dicarba-closo-dodecacarboran(12)-1-yl] pentane carboxylic acid [LSK 1-38]",kill constant (absolute value of X coefficient),A549 lung cancer cells [5],2.64
same,A549 cell survival (Table 1),A549 lung cancer cells [6]; 1.25 μg B/ml,50
same,A549 cell survival (Table 1),A549 lung cancer cells [6]; 2.5 μg B/ml,33
same,A549 cell survival (Table 1),A549 lung cancer cells [6]; 5.0 μg B/ml,18
same,A549 cell survival (Table 1),A549 lung cancer cells [6]; 10.0 μg B/ml,2
same,A549 cell survival (Table 1),A549 lung cancer cells [6]; 15.0 μg B/ml,0
same,A549 cell survival (Table 1),A549 lung cancer cells [6]; 20.0 μg B/ml,0
same,toxicity,A549 lung cancer cells [6]; A549 lung cancer cells,low toxicity
same,level above which all cell growth is suppressed,A549 lung cancer cells [6],above 10 μg B/ml
same,Atoms of ^10 B in cell,A549 lung cancer cells [7],96 × 10^9 atoms ^10 B/cell
same,cellular uptake (words),A549 lung cancer cells [7]; listed as LSK1-38,excellent cellular uptake
same,cellular uptake (words),A549 lung cancer cells [7]; listed as LSK-138,next highest cellular uptake
"2,4-divinyl-nido-o-carboranyldeuteroporphoryin IX [VCDP]",mortality of mice,[8],about 10%
sodium decahydrodecaborate,BNCT treatment outcome,tumor cells [1],failed due to vascular damage caused by high blood levels of boron
same,ratio of boron in tumor cells compared to normal cells,tumor cells [2],high ratios of boron in tumor cells compared to normal cells

# — US6037490A, “Boron-containing amino carboxylic acid compounds and uses thereof” (priority 1997, dated 2000)
